Biological target: T1, ASK1 (Homo sapiens, UniProt Q99683)
T1 construct: purchased Thermofisher PV4011
T1 sequence (Q99683 1-1374): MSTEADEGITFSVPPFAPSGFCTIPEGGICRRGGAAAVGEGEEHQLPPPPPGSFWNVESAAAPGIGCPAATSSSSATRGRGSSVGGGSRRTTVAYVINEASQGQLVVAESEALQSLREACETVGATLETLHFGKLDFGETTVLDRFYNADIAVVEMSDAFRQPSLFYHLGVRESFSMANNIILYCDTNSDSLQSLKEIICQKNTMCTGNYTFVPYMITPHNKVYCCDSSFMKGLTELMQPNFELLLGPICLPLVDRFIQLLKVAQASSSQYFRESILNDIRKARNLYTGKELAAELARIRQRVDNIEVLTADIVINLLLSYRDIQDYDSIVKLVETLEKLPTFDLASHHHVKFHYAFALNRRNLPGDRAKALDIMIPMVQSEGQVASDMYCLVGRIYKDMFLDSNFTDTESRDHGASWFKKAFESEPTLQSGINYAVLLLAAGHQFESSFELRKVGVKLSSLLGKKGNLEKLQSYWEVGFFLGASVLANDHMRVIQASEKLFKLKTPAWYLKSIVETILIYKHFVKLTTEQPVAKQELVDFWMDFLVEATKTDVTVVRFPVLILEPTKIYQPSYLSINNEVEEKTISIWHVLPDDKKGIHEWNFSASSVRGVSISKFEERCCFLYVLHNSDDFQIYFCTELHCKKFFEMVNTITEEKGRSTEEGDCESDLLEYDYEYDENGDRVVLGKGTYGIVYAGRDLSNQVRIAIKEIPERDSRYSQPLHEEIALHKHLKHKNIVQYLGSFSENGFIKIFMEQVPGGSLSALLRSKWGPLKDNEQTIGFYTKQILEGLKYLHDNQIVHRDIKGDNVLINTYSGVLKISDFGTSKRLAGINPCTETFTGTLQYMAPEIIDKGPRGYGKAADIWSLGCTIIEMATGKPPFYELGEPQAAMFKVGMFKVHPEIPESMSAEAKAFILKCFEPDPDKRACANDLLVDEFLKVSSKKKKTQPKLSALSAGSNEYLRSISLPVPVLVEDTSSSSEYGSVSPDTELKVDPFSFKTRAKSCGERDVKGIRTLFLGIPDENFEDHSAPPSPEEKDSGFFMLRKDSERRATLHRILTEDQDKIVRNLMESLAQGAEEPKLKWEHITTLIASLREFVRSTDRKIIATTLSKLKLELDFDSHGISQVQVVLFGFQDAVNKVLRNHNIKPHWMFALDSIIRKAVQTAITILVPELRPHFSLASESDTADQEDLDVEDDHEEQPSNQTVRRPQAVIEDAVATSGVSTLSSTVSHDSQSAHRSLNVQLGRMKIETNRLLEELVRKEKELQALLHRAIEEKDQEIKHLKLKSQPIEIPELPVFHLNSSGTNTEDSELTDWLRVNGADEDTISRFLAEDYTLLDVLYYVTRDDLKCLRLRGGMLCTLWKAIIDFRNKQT
Assay: HTRF KinEASE-STK TR-FRET kinase assay, inhibition of ASK1
Assay type: biochemical
Details: 5 nM ASK1, 1 uM STK3 peptide substrate, 100 uM ATP
Procedure: ASK1 was purchased from Thermofisher (Catalogue # PV4011), ATP was purchased from Sigma (Catalogue # A7699), HTRF® KinEASE™ Assay System was obtained from Cisbio (Bedford, Mass.). ½ Area plate was purchased from Perkin Elmer (Catalogue # #6005560). HTRF® KinEASE™-STK is a generic method for measuring serine/threonine kinase activities using a time-resolved fluorescence resonance energy transfer (TR-FRET) immunoassay. The IC50 value for each compound was determined in the presence of compound (various concentration from 0 to 10 μM) and a fixed amount of ATP and peptide substrates. The test compound, 1 uM STK3 peptide substrate, and 5 nM of ASK1 kinase are incubated with kinase reaction buffer containing 50 mM HEPES pH 7.5, 0.01% BRIJ-35, 10 mM MgCl2, and 1 mM EGTA for 30 minutes. 100 uM ATP is added to start kinase reaction and incubated for 3 hours. The STK3-antibody labeled with Eu^3+-Cryptate and 125 nM streptavidin-XL665 are mixed in a single addition with stop reagents provided by the Cisbio kit used to stop the kinase reaction. Fluorescence is detected using an Envision Multilabeled 2014 reader from PerkinElmer. The Fluorescence is measured at 615 nm (Cryptate) and 665 nm (XL665) and a ratio of 665 nm/615 nm is calculated for each well. The resulting TR-FRET is proportional to the phosphorylation level. Staurosporine was used as the positive control. IC50 was determined by XLfit 5.3.

Row | Compound | IC50 [nM]
1 | CC(C)n1nnnc1-c1cccc(NC(=O)c2cc3sc(N4CCN(C5CC5)CC4)nc3cc2F)n1 [Example 42] | > 1000
2 | CC(C)n1cnnc1-c1cccc(NC(=O)c2cc3sc(N4CCCCC4)nc3cc2F)n1 [Example 30, 5-fluoro-N-(6-(4-isopropyl-4H-1,2,4-triazol-3-yl)pyridin-2-yl)-2-(piperidin-1-yl)benzo[d]thiazole-6-carboxamide] | 1 to 10
3 | CC(C)n1nnnc1-c1cccc(NC(=O)c2cc3sc(N(C)CC4CC4)nc3cc2F)n1 [Example 39] | > 1000
4 | CC(C)n1nnnc1-c1cccc(NC(=O)c2cc3sc(C4CC4)nc3cc2F)n1 [Example 31] | > 1000
5 | CC(C)n1cnnc1-c1cccc(NC(=O)c2ccc3nc(N4CCC(C(C)(C)C)CC4)sc3c2)n1 [Example 25] | 100 to 1000
6 | CC(C)n1cnnc1-c1cccc(NC(=O)c2ccc3nc(N4CCC4)sc3c2)n1 [Example 21] | 100 to 1000
7 | CC(C)n1cnnc1-c1cccc(NC(=O)c2cc3sc(N(C)C)nc3cc2F)n1 [Example 14] | 1 to 10
8 | CCN(CC)c1nc2cc(F)c(C(=O)Nc3cccc(-c4nncn4C(C)C)n3)cc2s1 [Example 13] | 1 to 10
9 | CCCCNc1nc2cc(F)c(C(=O)Nc3cccc(-c4nnnn4C(C)C)n3)cc2s1 [Example 40] | > 1000
10 | CC(C)n1nnnc1-c1cccc(NC(=O)c2cc3sc(N4CCCCC4)nc3cc2F)n1 [Example 4] | > 1000
11 | CC(C)n1cnnc1-c1cccc(NC(=O)c2cc3sc(C4CCC4)nc3cc2F)n1 [Example 37] | 10 to 100
12 | CC(C)n1nnnc1-c1cccc(NC(=O)c2cc3sc(C4CCC4)nc3cc2F)n1 [Example 36] | 100 to 1000
13 | CC(C)n1cnnc1-c1cccc(NC(=O)c2cc3sc(NC4CC4)nc3cc2F)n1 [Example 6, 2-(cyclopropylamino)-5-fluoro-N-(6-(4-isopropyl-4H-1,2,4-triazol-3-yl)pyridin-2-yl)benzo[d]thiazole-6-carboxamide] | 1 to 10
14 | CC(C)n1cnnc1-c1cccc(NC(=O)c2ccc3nc(NC4CCCCC4)sc3c2)n1 [Example 24] | 10 to 100

Continued, values first:

Row | IC50 [nM] | Compound
15 | > 1000 | CC(C)n1nnnc1-c1cccc(NC(=O)c2cc3sc(N4CCC(C(C)(C)C)CC4)nc3cn2)n1 [Example 68]
16 | 10 to 100 | CC(C)n1cnnc1-c1cccc(NC(=O)c2ccc3nc(N4C5CCCC4CC5)sc3c2)n1 [Example 51]
17 | > 1000 | CC(C)n1nnnc1-c1cccc(NC(=O)c2cc3sc(N4CCOCC4)nc3cn2)n1 [Example 72]
18 | 100 to 1000 | CC(C)Nc1nc2ccc(C(=O)Nc3cccc(-c4nncn4C(C)C)n3)cc2s1 [Example 56]
19 | > 1000 | CC(C)n1cnnc1-c1cccc(NC(=O)c2ccc3nc(N4CCC(C)(C)CC4)sc3c2)n1 [Example 54]
20 | 10 to 100 | CC(C)n1cnnc1-c1cccc(NC(=O)c2cc3sc(N4CCN(C(C)(C)C)CC4)nc3cn2)n1 [Example 74]
21 | 1 to 10 | CC(C)n1cnnc1-c1cccc(NC(=O)c2cc3sc(N4CCOCC4)nc3cn2)n1 [Example 65]
22 | > 1000 | CC(C)n1nnnc1-c1cccc(NC(=O)c2cc3sc(C4CCC4)nc3cn2)n1 [Example 69]
23 | 10 to 100 | CC(C)n1nnnc1-c1cccc(NC(=O)c2cc3sc(N4CCOCC4)nc3cc2F)n1 [Example 46]
24 | > 1000 | CC(C)n1nnnc1-c1cccc(NC(=O)c2cc3sc(N4CCCCC4)nc3cn2)n1 [Example 62]
25 | > 1000 | CC(C)n1nnnc1-c1cccc(NC(=O)c2cc3sc(C4CC4)nc3cn2)n1 [Example 70]
26 | 1 to 10 | CNc1nc2cc(F)c(C(=O)Nc3cccc(-c4nncn4C(C)C)n3)cc2s1 [Example 49, 5-fluoro-N-(6-(4-isopropyl-4H-1,2,4-triazol-3-yl)pyridin-2-yl)-2-(methylamino)benzo[d]thiazole-6-carboxamide]
27 | 10 to 100 | CC(C)n1cnnc1-c1cccc(NC(=O)c2ccc3nc(N4CCCCC4)sc3c2)n1 [Example 60, N-(6-(4-isopropyl-4H-1,2,4-triazol-3-yl)pyridin-2-yl)-2-(piperidin-1-yl)benzo[d]thiazole-6-carboxamide]
28 | 10 to 100 | CC(C)n1cnnc1-c1cccc(NC(=O)c2cc3sc(C4CCC4)nc3cn2)n1 [Example 67]
29 | 10 to 100 | CC(C)n1cnnc1-c1cccc(NC(=O)c2ccc3nc(N4CCOCC4)sc3c2)n1 [Example 61]
